Measured values from patent US20240425529A1, “BORIC ACID DERIVATIVE” (SHOUYAO HOLDINGS (BEIJING) CO., LTD., priority 2021, published 2024).

What was measured:
LMP7 [1] = target: T1, LMP7 (Homo sapiens, UniProt P28062); assay: Enzymatic inhibitory activity on LMP7 (MOLT-4 cell lysate, Ac-ANW-AMC substrate); type: biochemical; settings: 1 hour pre-incubation
T1 construct: using MOLT-4 cell lysate as the enzyme source of LMP7; endogenous in cells; host or cells: MOLT-4 (human acute lymphoblastic leukemia cells)
Source text: LMP7 is a catalytic subunit of immunoproteasomes. In this experiment, an enzymatic detection platform was established using its hydrolytic enzyme activity and used for compound activity detection. Using Ac-ANW-AMC (Bonston Biochem, Cat #S-320) as a substrate for LMP7, the amount of fluorescent group AMC (7-amino-4-methylcoumarin) released after hydrolysis can reflect the enzymatic activity. MOLT-4 cells are human acute lymphoblastic leukemia cells and have been identified as cells with high expression of LMP7. We established an enzymatic detection method for compound inhibition on LMP7 using MOLT-4 cell lysate as the enzyme source of LMP7 and detected the compound inhibitory activity (half inhibitory concentration, IC50).
(§1) MOLT-4 cells were cultured in a 75 cm^2 cell culture flask (Corning) (37° C., 95% air, and 5% CO2) with RPMI-1640 (Biological Industries) medium containing 10% fetal bovine serum (Biological Industries) and 1% Pen Strep (Gibco) and passaged 2-3 times one week. 1×10^7 MOLT-4 cells were collected, resuspended in 1 ml of PBS (Solarbio), and centrifuged at 3000 rpm for 5 minutes. The supernatant was aspirated off. The cells were resuspended in 500 μl of lysis buffer (20 mM Tris, pH 8.0, 5 mM EDTA, plus Protease inhibitor (1:1000) and Phosphatase Inhibitor (1:100) when used) and left on ice for 30 minutes. The cells were broken by supersonic technique, 0.5 S on, 0.5 S off, for 2.5 S. The centrifuge was performed at 12000 rpm, 4° C. for 10 minutes. The supernatant was the cell lysate and protein quantification was performed by using the BCA method (Thermo, #23225).
Compounds were diluted in a 5-fold gradient with 100% DMSO for a total of 9 concentrations: 2 W for each concentration was added to a 48-μl reaction buffer (20 mM Tris, pH 8.0, 0.5 mM EDTA) and mixed well as 4* compound (final concentrations: 2000, 400, 80, 16, 3.2, 0.64, 0.128, 0.0256, and 0 nM) for later use. A reaction buffer was used to prepare 4* MOLT-4 cell lysate at a final concentration of 20 ng/μl and 2*Ac-ANW-AMC at a final concentration of 100 µM. 5 μl of 4* compound was added to a 384-well plate (OptiPlate-384, purchased from PerkinElmer), added with 5 W of 4* cell lysate, centrifuged, and reacted in an incubator at 23° C. for 1 hour. 10 W of 2* Ac-ANW-AMC was added and the reaction was started by centrifugation at 23° C. in the dark for 2 hours. After completion of the reaction, the signal value (excitation wavelength 345 nm/emission wavelength 445 nm) was read on the CLARIO star^Plus (purchased from BMG LRBTECH). Enzyme activity was determined at 9 concentrations for each compound, and data were processed using the GraphPad Prism software to calculate the half inhibitory concentration of the compound on LMP7, i.e. the IC50 value.

β5 = target: T2, β5 (Homo sapiens, UniProt P28074); assay: Enzymatic inhibitory activity on β5 (HEK-293 cell lysate, Ac-WLA-AMC substrate); type: biochemical; settings: 1 hour pre-incubation
T2 construct: using HEK-293 cell lysate as the enzyme source of D5; endogenous in cells; host or cells: HEK-293 (human embryonic kidney cells)
Source text: β5 is a catalytic subunit of immunoproteasomes. In this experiment, an enzymatic detection platform was established using its hydrolytic enzyme activity and used for compound activity detection. Using Ac-WLA-AMC (Bonston Biochem, Cat #5-330) as a substrate for D5, the amount of fluorescent group AMC (7-amino-4-methylcoumarin) released after hydrolysis can reflect the enzymatic activity. […] We established an enzymatic detection method for compound inhibition on D5 using HEK-293 cell lysate as the enzyme source of D5 and detected the compound inhibitory activity (half inhibitory concentration, IC50). The enzymatic inhibitory activity of compounds against D5 was used as a measure index of compound selectivity.
as §1, with “HEK-293” for “MOLT-4”, “DMEM” for “RPMI-1640”, “performed” for “performed by”
Compounds were diluted in a 5-fold gradient with 100% DMSO for a total of 9 concentrations. 2 W for each concentration was added to a 48-μl reaction buffer (20 mM Tris, pH 8.0, 0.5 mM EDTA) and mixed well as 4* compound (final concentrations: 100000, 20000, 4000, 800, 160, 32, 6.4, 1.28, and 0 nM) for later use. A reaction buffer was used to prepare 4*HEK-293 cell lysate at a final concentration of 25 ng/μl and 2*Ac-WLA-AMC at a final concentration of 20 μM. 5 W of 4* compound was added to a 384-well plate (OptiPlate-384, purchased from PerkinElmer), added with 5 W of 4*HEK-293 cell lysate, centrifuged, and reacted in an incubator at 23° C. for 1 hour. 10 W of 2* Ac-WLA-AMC was added and the reaction was started by centrifugation at 23° C. in the dark for 2 hours. After completion of the reaction, the signal value (excitation wavelength 345 nm/emission wavelength 445 nm) was read on the CLARIO star^Plus (purchased from BMG LRBTECH). Enzyme activity was determined at 9 concentrations for each compound, and data were processed using the GraphPad Prism software to calculate the half inhibitory concentration of the compound on D5, i.e. the IC50 value.

LMP7 [2] = target: T1, LMP7; assay: Cytological inhibitory activity on LMP7 in MOLT-4 cells; type: cell-based; settings: incubation for 2 hours with compound, read-out: Cytological activity data LMP7 Activity (MOLT-4Cell)
Experimental: MOLT-4 are human acute lymphoblastic leukemia cells and have been identified as cells with high expression of LMP7. In this experiment, the compounds were pre-incubated with MOLT-4, and Ac-ANW-AMC (BonstonBiochem, Cat #S-320) was used as the substrate of LMP7 to establish the detection method for the enzymatic activity of LMP7 in cells and detect the compound inhibitory activity (half inhibitory concentration, IC50).
Cells were plated in a 24-well plate (Corning) at a concentration of 1.5×10^5/ml per well. The next day compounds were prepared and diluted in a 5-fold gradient from 2 mM in 100% DMSO for a total of 8 concentrations. 2 μl for each concentration of the compound was added to a 1-ml cell culture medium, supplemented with 1 ml of RPMI-1640 only (final FBS concentration 5%, v/v). The compounds were mixed with the cells. After incubation for 2 hours in the incubator, the cells were centrifuged at 2000 rpm for 8 minutes to discard the supernatant. The cells were washed once with 2 ml PBS (Solarbio), and centrifuged again to discard the supernatant. The cells were resuspended in 100 μl of lysis buffer (20 mM Tris, pH 8.0, 5 mM EDTA, plus Protease inhibitor (1: 100) and Phosphatase Inhibitor (1:100) when used) and left in a 4° C. refrigerator for 45 minutes.
After 2 min. of centrifuge at 2000 rpm, the lysate was transferred from the 24-well plate to a 96-well plate, and centrifuged at 2000 rpm, 4° C., for 15 min. The supernatant was the lysate. Protein quantification was performed using the BCA method (Thermo, #23225). A 2* lysate was prepared with the reaction buffer (20 mM Tris, pH 8.0, 0.5 mM EDTA) at a final concentration of 20 ng/μl. 2* Ac-ANW-AMC was prepared with the reaction buffer at a final concentration of 100 μM. 10 µl of 2* lysate was added to a 384-well plate (OptiPlate-384, purchased from PerkinElmer), and added with 10 W of 2* Ac-ANW-AMC. The reaction was started by centrifugation at 23° C. in the dark for 1 hour. After completion of the reaction, the signal value (excitation wavelength 345 nm/emission wavelength 445 nm) was read on the CLARIO starPlus (purchased from BMG LRBTECH). Enzyme activity was determined at 8 concentrations for each compound, and data were processed using the GraphPad Prism software to calculate the half inhibitory concentration of the compound on LMP7 hydrolase in MOLT-4 cells, i.e. the IC50 value.

Compound: CC1(C)[C@@H]2C[C@H]3OB([C@H](Cc4coc5ccccc45)NC(=O)C(=O)Nc4ncc(Cl)s4)O[C@@]3(C)[C@H]1C2 [Ex. 35, (R)-(2-(benzofuran-3-yl)-1-(2-oxo-2-((5-chlorothiazol-2-yl)amino)acetamido)ethyl)boronic acid (1S,2S,3R,5S)-(+)-pinane-2,3-diol ester]
- IC50 (LMP7 [1]): 1.99 nM
- IC50 (β5): 38.4 nM
- IC50 (LMP7 [2]): 13.6 nM

Compound: O=C(Nc1ncc(Cl)s1)C(=O)N[C@@H](Cc1coc2ccccc12)B(O)O [Ex. 36, (R)-(2-(benzofuran-3-yl)-1-(2-oxo-2-((5-chlorothiazol-2-yl)amino)acetamido)ethyl)boronic acid]
- IC50 (LMP7 [1]): 3.14 nM
- IC50 (β5): 54.5 nM
- IC50 (LMP7 [2]): 19.5 nM

Compound: Cn1ccnc1NC(=O)C(=O)N[C@@H](Cc1coc2ccccc12)B(O)O [Ex. 37, (R)-(2-(benzofuran-3-yl)-1-(2-oxo-2-((1-methyl-1H-imidazol-2-yl)amino)acetamido)ethyl)boronic acid]
- IC50 (LMP7 [1]): 5.93 nM
- IC50 (β5): 264 nM
- IC50 (LMP7 [2]): 111 nM

Compound: O=C(N[C@@H](Cc1coc2ccccc12)B(O)O)C(=O)N1C2CCC1COC2 [Ex. 39, (R)-(2-(benzofuran-3-yl)-1-(2-oxo-2-(3-oxa-8-azabicyclo[3.2.1]octan-8-yl)acetamido)ethyl)boronic acid]
- IC50 (LMP7 [1]): 5.95 nM
- IC50 (β5): 392 nM
- IC50 (LMP7 [2]): 3.51 nM

Compound: O=C(N[C@@H]1CCOC1)C(=O)N[C@@H](Cc1coc2ccccc12)B(O)O [Ex. 44, ((R)-2-(benzofuran-3-yl)-1-(2-oxo-2(((R)-tetrahydrofuran-3-yl)amino)acetamido)ethyl) boronic acid]
- IC50 (LMP7 [1]): 4.91 nM
- IC50 (β5): 54.2 nM
- IC50 (LMP7 [2]): 15.9 nM

Compound: COc1ncccc1NC(=O)C(=O)N[C@@H](Cc1coc2ccccc12)B(O)O [Ex. 45, (R)-(2-(benzofuran-3-yl)-1-(2-oxo-2-((2-methoxypyridin-3-yl)amino)acetamido)ethyl)boronic acid]
- IC50 (LMP7 [1]): 5.32 nM
- IC50 (β5): 97.7 nM
- IC50 (LMP7 [2]): 22.7 nM

Compound: Cc1cnc(NC(=O)C(=O)N[C@@H](Cc2coc3ccccc23)B(O)O)cn1 [Ex. 46, (R)-(2-(benzofuran-3-yl)-1-(2-oxo-2-((5-methylpyrazin-2-yl)amino)acetamido)ethyl)boronic acid]
- IC50 (LMP7 [1]): 7.83 nM
- IC50 (β5): 93.8 nM
- IC50 (LMP7 [2]): 2.29 nM

Compound: O=C(Nc1cnc2ccccc2n1)C(=O)N[C@@H](Cc1coc2ccccc12)B(O)O [Ex. 47, (R)-(2-(benzofuran-3-yl)-1-(2-oxo-2-(quinoxalin-2-ylamino)acetamido)ethyl) boronic acid]
- IC50 (LMP7 [1]): 3.1 nM
- IC50 (β5): 43.5 nM
- IC50 (LMP7 [2]): 2.32 nM

Compound: O=C(Nc1cncnc1)C(=O)N[C@@H](Cc1coc2ccccc12)B(O)O [Ex. 48, (R)-(2-(benzofuran-3-yl)-1-(2-oxo-2-(pyrimidin-5-ylamino)acetamido)ethyl) boronic acid]
- IC50 (LMP7 [1]): 4.58 nM
- IC50 (β5): 22.5 nM
- IC50 (LMP7 [2]): 11.1 nM

Compound: CN(C)c1ccnc(NC(=O)C(=O)N[C@@H](Cc2coc3ccccc23)B(O)O)c1 [Ex. 50, (R)-(2-(benzofuran-3-yl)-1-(2-oxo-2-((4-dimethylaminopyridin-2-yl)amino)acetamido)ethyl)boronic acid]
- IC50 (LMP7 [1]): 5.96 nM
- IC50 (β5): 357 nM
- IC50 (LMP7 [2]): 7.91 nM

Compound: CC1(C)[C@@H]2C[C@H]3OB([C@H](Cc4coc5ccccc45)NC(=O)C(=O)N[C@@H]4C[C@H]5CC[C@@H]4O5)O[C@@]3(C)[C@H]1C2 [Ex. 51, ((R)-1-(2-(((1S,2R,4R)-7-oxabicyclo[2.2.1]heptan-2-yl)amino)-2-oxoacetamido)-2-(benzofuran-3-yl)ethyl)boronic acid (1S,2S,3R,5S)-(+)-pinane-2,3-diol ester]
- IC50 (LMP7 [1]): 3.08 nM
- IC50 (β5): 74.6 nM
- IC50 (LMP7 [2]): 3.88 nM

Compound: CC1(C)[C@@H]2C[C@H]3OB([C@H](Cc4coc5ccccc45)NC(=O)C(=O)Nc4ccccc4F)O[C@@]3(C)[C@H]1C2 [Ex. 52, (R)-(2-(benzofuran-3-yl)-1-(2-oxo-2-(2-fluorophenylamino)acetamido)ethyl) boronic acid (1S,2S,3R,5S)-(+)-pinane-2,3-diol ester]
- IC50 (LMP7 [1]): 1.61 nM
- IC50 (β5): 32.4 nM
- IC50 (LMP7 [2]): 4.94 nM
